Like-named read-outs stand apart in the source and are kept apart here.
Legend:
Assay type in all cases: biochemical
MAO-A = biological target: T1, MAO-A (Homo sapiens, UniProt P21397); assay: In vitro MAO-A inhibition assay
T1 sequence (P21397 1-527): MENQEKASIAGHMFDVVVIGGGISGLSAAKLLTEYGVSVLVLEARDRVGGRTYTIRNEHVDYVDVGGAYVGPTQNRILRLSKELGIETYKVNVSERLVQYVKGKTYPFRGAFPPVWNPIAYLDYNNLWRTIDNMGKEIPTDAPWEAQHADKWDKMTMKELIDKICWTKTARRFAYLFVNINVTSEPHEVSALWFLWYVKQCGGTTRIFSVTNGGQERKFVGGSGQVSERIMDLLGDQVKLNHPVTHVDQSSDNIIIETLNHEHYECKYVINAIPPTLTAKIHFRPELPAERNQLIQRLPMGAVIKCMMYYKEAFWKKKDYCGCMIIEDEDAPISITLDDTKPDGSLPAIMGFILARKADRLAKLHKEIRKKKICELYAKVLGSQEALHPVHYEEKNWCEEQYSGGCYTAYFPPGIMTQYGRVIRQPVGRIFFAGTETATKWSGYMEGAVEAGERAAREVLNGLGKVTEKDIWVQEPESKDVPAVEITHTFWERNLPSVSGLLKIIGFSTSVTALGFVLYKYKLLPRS

BChE (EC 3.1.1.8) = BChE (EC 3.1.1.8) (Homo sapiens, UniProt P06276); assay: In vitro BChE inhibition assay
5-lipoxygenase (5-LOX) = assay: 5-Lipoxygenase inhibitory assay; conditions: read-out: IC50 (μM) ± SEM 5-LOX
[1] = biological target: T2, Cyclooxygenase (COX-2) from human recombinant (Homo sapiens, UniProt P35354); assay: biochemical
T2 sequence (P35354 18-604): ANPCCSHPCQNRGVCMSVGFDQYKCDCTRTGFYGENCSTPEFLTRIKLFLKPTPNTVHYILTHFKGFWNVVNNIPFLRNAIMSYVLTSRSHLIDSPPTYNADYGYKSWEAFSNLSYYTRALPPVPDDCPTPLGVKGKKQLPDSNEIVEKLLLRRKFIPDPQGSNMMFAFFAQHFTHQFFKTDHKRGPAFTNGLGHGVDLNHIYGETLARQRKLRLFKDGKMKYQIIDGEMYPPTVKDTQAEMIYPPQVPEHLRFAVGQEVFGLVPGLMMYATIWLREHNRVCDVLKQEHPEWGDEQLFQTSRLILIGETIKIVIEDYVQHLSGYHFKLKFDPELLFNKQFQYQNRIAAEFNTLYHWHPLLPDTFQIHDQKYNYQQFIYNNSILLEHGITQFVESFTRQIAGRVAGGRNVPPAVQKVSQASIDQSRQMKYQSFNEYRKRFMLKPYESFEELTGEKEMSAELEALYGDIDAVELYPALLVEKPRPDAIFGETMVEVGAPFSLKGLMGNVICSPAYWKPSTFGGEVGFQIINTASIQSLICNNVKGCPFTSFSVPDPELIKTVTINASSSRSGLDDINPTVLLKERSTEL

[2] = biological target: AChE (EC Number: 3.1.1.7.) (Homo sapiens, UniProt P22303); assay: In vitro AChE inhibition assay
MAO-B = biological target: T3, MAO-B (Homo sapiens, UniProt P27338); assay: In vitro MAO-B inhibition assay
T3 sequence (P27338 1-520): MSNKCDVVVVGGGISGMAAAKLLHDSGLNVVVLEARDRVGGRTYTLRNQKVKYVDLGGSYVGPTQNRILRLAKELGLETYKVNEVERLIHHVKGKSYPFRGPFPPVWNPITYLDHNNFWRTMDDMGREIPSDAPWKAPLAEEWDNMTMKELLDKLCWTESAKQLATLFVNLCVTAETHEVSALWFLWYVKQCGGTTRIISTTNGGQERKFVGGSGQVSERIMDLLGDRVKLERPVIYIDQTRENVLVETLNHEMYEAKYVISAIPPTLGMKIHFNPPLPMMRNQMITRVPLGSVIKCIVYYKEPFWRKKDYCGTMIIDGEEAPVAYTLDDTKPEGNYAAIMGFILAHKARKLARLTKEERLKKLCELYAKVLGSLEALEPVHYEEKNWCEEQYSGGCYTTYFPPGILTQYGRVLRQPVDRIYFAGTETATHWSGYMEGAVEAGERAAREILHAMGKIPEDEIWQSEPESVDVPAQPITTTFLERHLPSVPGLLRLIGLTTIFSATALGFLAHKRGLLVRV

[3] = read-out: IC50 (μM) ± SEM MAO-A, ± SEM
[4] = read-out: IC50 (μM) ± SEM BChE, ± SEM

Chain of BChE (EC 3.1.1.8) (P06276 29-602, species assumed): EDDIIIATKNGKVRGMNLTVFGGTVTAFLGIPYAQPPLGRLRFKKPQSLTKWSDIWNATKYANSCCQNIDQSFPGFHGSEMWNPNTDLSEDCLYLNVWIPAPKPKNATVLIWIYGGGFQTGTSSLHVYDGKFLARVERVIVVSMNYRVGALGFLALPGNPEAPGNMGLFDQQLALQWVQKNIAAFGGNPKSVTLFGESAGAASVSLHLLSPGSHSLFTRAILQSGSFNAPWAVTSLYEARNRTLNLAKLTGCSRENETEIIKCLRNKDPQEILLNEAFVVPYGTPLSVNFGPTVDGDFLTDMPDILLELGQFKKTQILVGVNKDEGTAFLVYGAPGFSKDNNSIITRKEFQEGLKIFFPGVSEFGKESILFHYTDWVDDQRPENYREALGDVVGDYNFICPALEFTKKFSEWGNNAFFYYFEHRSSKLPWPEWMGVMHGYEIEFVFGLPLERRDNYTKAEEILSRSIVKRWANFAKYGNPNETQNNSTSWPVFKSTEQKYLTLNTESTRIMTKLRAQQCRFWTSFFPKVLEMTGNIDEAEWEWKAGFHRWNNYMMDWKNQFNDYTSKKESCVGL
Chain of AChE (EC Number: 3.1.1.7.) (P22303 32-614): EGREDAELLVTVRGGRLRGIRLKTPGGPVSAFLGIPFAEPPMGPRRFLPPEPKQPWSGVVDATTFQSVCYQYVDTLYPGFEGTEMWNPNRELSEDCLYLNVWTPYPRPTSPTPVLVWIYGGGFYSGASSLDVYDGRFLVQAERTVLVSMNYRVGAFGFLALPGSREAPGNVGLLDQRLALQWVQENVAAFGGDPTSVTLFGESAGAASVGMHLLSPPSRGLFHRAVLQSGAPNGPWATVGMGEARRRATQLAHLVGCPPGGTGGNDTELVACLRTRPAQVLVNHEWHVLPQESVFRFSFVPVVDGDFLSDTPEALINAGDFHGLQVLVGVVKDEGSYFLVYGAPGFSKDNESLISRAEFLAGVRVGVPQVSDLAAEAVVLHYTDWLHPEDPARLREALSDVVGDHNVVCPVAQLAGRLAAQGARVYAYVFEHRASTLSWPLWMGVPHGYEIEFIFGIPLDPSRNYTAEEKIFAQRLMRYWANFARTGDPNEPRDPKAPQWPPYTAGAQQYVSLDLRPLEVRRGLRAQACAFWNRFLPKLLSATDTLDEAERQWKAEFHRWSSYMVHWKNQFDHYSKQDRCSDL

| Compound | IC50 (MAO-A; [3]) [µM] | IC50 (BChE (EC 3.1.1.8); [4]) [µM] | activity against BChE, in words (BChE (EC 3.1.1.8)) | IC50 (5-lipoxygenase (5-LOX)) [µM] | IC50 (MAO-A) [µM] | IC50 [1] [µM] | activity against COX-2, in words [1] | IC50 (BChE (EC 3.1.1.8)) [µM] | IC50 [2] [µM] | inhibition of AChE, in words [2] | IC50 (MAO-B) [µM] |
| --- | --- | --- | --- | --- | --- | --- | --- | --- | --- | --- | --- |
| 2,2′-(1-(4-(6-(2,4-Dichlorophenyl)-1,8a-dihydro-7H-[1,2,4]triazolo[3,4-b][1,3,4]thiadiazin-3-yl)phenyl)-1H-1,2,4-triazole-3,5-diyl)diphenol [Compound 25] | 0.81 ± 0.02 | 1.09 ± 0.11 | – | – | – | – | – | – | – | – | – |
| 3-(3-(4-(3,5-Bis(2-hydroxyphenyl)-1H-1,2,4-triazol-1-yl)phenyl)-1,8a-dihydro-7H-[1,2,4]triazolo[3,4-b][1,3,4]thiadiazin-6-yl)-3,10a-dihydro-2H-benzo[g]chromen-2-one [Compound 22] | 0.61 ± 0.07 | 10.8 ± 0.97 | – | – | – | – | – | – | – | – | – |
| 3-(3-(4-(3,5-Bis(2-hydroxyphenyl)-1H-1,2,4-triazol-1-yl)phenyl)-1,8a-dihydro-7H-[1,2,4]triazolo[3,4-b][1,3,4]thiadiazin-6-yl)-7-bromo-3,8a-dihydro-2H-chromen-2-one [Compound 23] | 1.32 ± 0.11 | 14 ± 1.11 | excellent to moderate activity | – | – | – | – | – | – | – | – |
| O=C(O)c1ccc(-n2nc(-c3ccccc3O)nc2-c2ccccc2O)cc1 [Compound 9, deferasirox, reference compound] | – | – | excellent to moderate activity | 1.28 ± 0.13 | 10 ± 1.78 | 4.93 ± 0.38 | good to moderate activity | 0.11 ± 0.005 | 0.43 ± 0.05 | significant inhibition | 0.18 ± 0.01 |
| Oc1ccccc1-c1nc(-c2ccccc2O)n(-c2ccc(-c3nnc4n3N=C(c3ccc(Cl)cc3)CS4)cc2)n1 [Compound 15, 2,2′-(1-(4-(6-(4-Chlorophenyl)-7H-[1,2,4]triazolo[3,4-b][1,3,4]thiadiazin-3-yl)phenyl)-1H-1,2,4-triazole-3,5-diyl)diphenol] | – | – | – | – | 3.58 ± 0.56 | 75.3 ± 3.56 | good to moderate activity | 3.96 ± 0.22 | – | – | – |

— paper PMC11694444 (RSC Advances, 2025)
